Assays:
[1] = target: T1, VHL-NanoLuc (Homo sapiens, UniProt P40337); test: NanoBRET VHL target engagement; assay type: cell-based
T1 construct: VHL-NanoLuc fusion (Promega) transfected into HEK293; endogenous elongins

[2] = target: KRAS^G12C (Homo sapiens, UniProt P01116, G12C); design: endogenous; KRAS degradation by capillary electrophoresis immunodetection; details: read-out: DC50 24 h NCI-H358
Experimental: Protein Detection by Capillary Electrophoresis Cells (50 000) were seeded the day before treatment into 96-well clear-flat bottom plates and incubated overnight (37 °C, humidified tissue culture incubator, 5% CO2). Compounds were added from DMSO stock solution using a digital dispenser and cells are incubated at 37 °C as specified (24 hours for KRAS degradation, 6 hours for determination of pERK levels). At the end of the incubation, medium was removed, cells washed with ice cold PBS, PBS removed and 50 µL lysis buffer (Meso Scale Discovery #R60TX-2) supplemented with 1:100 protease inhibitor solution, 1:100 phosphatase inhibitor I, 1:100 phosphatase inhibitor II (Meso Scale Discovery #R70AA-1), 0.5 µL/mL Benzonase (Novagen #70664-3) and 10 mM dithiothreitol added to each well. Plates with lysis buffer were immediately transferred to -80 °C freezer for at least 2 hours and then thawed on ice. Lysates were transferred to a 96 well V-bottom plate and insoluble debris was pelleted by centrifugation for 20 min. at 4 000 rpm. 40 µL of the supernatant were transferred to a fresh Eppendorf PCR plate. Analysis of protein levels was conducted using the Wes System, ProteinSimple (https://www.bio-techne.com/) as specified by the manufacturer. […]

[3] = test system: NCI-H358; test: cells; design: Inhibition of cell proliferation, 5 days; details: Homo sapiens, NCI-H358, 120 h; read-out: IC50 Proliferation NCI-H358
Source text: Next, we set out to test the ability of a single pan-KRAS degrading molecule, compound 4, to selectively suppress oncogenic signaling and proliferation in cancer cell lines driven by diverse KRAS mutants. To this end, we first confirmed degradation of KRAS by compound 4 in KRAS-dependent (GP2d, SW620 and NCI-H358 expressing KRAS^G12D, - G12V or -G12C, respectively) as well as in KRAS independent (A-375, HEK293) cell lines (Fig. 3A, fig. S4A). […] Both inhibition and degradation repressed the established markers of MAPK signaling pERK (fig. S4B-D) and DUSP6 (Fig. 3B, fig. S4E) in KRAS dependent cell lines. […] Neither degradation nor inhibition had appreciable antiproliferative effects in the KRAS independent cell lines A-375 and HEK293 (Fig. 3C, fig. S4F). […] Pan-KRAS degradation impacts MAPK signaling and cancer cell proliferation.

Chain of KRAS^G12C (P01116 whole entry G12C): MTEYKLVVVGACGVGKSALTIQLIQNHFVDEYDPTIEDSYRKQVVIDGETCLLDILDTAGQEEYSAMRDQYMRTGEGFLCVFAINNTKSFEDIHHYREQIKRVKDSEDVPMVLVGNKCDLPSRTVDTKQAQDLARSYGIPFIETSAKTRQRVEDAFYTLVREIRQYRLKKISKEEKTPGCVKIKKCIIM
T1 sequence (P40337 whole entry, the tested form may be a part): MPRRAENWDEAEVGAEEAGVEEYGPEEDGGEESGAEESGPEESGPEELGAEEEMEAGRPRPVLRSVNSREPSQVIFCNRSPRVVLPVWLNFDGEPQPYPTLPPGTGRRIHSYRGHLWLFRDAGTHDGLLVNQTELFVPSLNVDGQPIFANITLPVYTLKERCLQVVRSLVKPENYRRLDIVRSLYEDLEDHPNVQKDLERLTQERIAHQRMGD

Compound | IC50 [1] [µM] | DC50 [2] [nM] | IC50 [3] [nM]
Cc1ncsc1-c1ccc(CNC(=O)[C@@H]2C[C@@H](O)CN2C(=O)[C@@H](NC(=O)COCCCN2CCCN(c3nccc(-c4noc([C@@]5(C)CCCc6sc(N)c(C#N)c65)n4)n3)[C@@H](C)C2)C(C)(C)C)cc1 [compound 2] | 5 | – | –
Cc1ncsc1-c1ccc(CNC(=O)[C@@H]2C[C@@H](O)CN2C(=O)[C@@H](NC(=O)CCCCCN2CCCN(c3nccc(-c4noc([C@@]5(C)CCCc6sc(N)c(C#N)c65)n4)n3)[C@@H](C)C2)C(C)(C)C)cc1 [compound 3] | – | 241 | 983
Cc1ncsc1-c1ccc(CNC(=O)[C@@H]2C[C@@H](O)CN2C(=O)[C@@H](c2cc(OCCCCN3CCCN(c4nccc(-c5noc([C@@]6(C)CCCc7sc(N)c(C#N)c76)n5)n4)[C@@H](C)C3)no2)C(C)C)cc1 [compound 4] | – | 25.1 | 85.4

Source: doi:10.1101/2023.10.24.563163v2, “Targeting cancer with small molecule pan-KRAS degraders” (biorxiv, 2024)
